Legend:
PsPrnB [1] = biological target: T1, PsPrnB; assay: UV-visible absorption titration of the ferric enzyme; resonance Raman; format: binding, Pseudomonas sp. ADAK18
T1 construct: gene prnB; N-terminal His6-tag (TEV-cleavable)

FbPrnB [2] = biological target: T2, FbPrnB (Flavobacteriales bacterium, UniProt A0AC62AEF3); assay: X-ray crystal structure of the binary complex; format: binding
T2 construct: N-terminal His-tag
T2 sequence (A0AC62AEF3 1-350): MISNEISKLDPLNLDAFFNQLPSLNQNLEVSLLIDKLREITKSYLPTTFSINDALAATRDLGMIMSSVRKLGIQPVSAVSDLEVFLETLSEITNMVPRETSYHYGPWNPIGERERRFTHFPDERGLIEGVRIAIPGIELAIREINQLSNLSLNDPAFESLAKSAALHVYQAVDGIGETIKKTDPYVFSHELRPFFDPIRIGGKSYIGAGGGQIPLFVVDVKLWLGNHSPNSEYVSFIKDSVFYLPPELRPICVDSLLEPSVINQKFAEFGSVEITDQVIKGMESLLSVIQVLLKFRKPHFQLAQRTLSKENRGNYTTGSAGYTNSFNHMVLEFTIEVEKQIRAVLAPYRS

PsPrnB [3] = biological target: T1, PsPrnB; assay: UV-visible absorption titration of the ferric enzyme; EPR; resonance Raman; format: binding, Pseudomonas sp. ADAK18
FbPrnB [4] = biological target: T2, FbPrnB; assay: X-ray crystal structure of the binary complex ([…] and […] occupancy); format: binding
FbPrnB [5] = biological target: T2, FbPrnB; assay: X-ray crystal structure of the binary complex; UV-visible; resonance Raman; format: binding

Row | SMILES | Kd (PsPrnB [1]) [µM] | X-ray crystal structure of the binary complex (FbPrnB [2]) | Kd (PsPrnB [3]) [µM] | X-ray crystal structure of the binary complex (75% and 90% occupancy) (FbPrnB [4]) | X-ray crystal structure of the binary complex; UV-visible; resonance Raman (FbPrnB [5])
1 | N[C@@H](Cc1c[nH]c2c(Cl)cccc12)C(=O)O [7-Cl-Trp, 7-chloro-L-tryptophan] | 1.9 | binding conformations of 7-Cl-Trp and Trp are nearly identical (Fig. S7A), with the amino group directly coordinating to the iron center | – | – | –
2 | O=C(O)CCc1c[nH]c2ccccc12 [IDPA, 3-indolepropionic acid] | – | The structure of the IDPA-bound complex aligns well with our spectroscopic data, confirming that IDPA does not directly interact with the iron | 9.1 | – | –
3 | NCCc1c[nH]c2ccccc12 [TAM, tryptamine] | – | – | 411 | The amine tail is flexible and adopts two distinct conformations in Chain A (Fig. 5D), with one remaining in coordination | –
4 | N[C@@H](Cc1c[nH]c2ccccc12)C(=O)O [Trp, L-tryptophan] | – | – | 4.1 | – | binding conformations of 7-Cl-Trp and Trp are nearly identical (Fig. S7A), with the amino group directly coordinating to the iron center
